In EP3248604A1, “AGENTS FOR MODULATION OF WNT-TCF SIGNALLING AND USES THEREOF” (UNIVERSITE DE GENEVE, priority 2016, dated 2017):

Assays:
Type in all cases: cell-based, human
Chemokine/cytokine = assay: RT-qPCR gene expression in Ls174T cells, chemokine/cytokine genes; design: key: ratio normalized to DMSO control = 1; conditions: vs DMSO=1
Experimental: (§1) RT-qPCR was performed as in Melotti et al. (2014, supra) using BioRad equipment and reagents. Cells cultured in nitro were treated with the desired concentration of drug in DMEM-F12 and reduced serum (2.5% FBS) for 16h, unless otherwise noted, and collected in Trizol (Sigma) before total RNA extraction and cDNA synthesis. Primers were as in Table 1. HPRT (gene encoding Hypoxanthine phosphoribosyltransferase 1) and βACTIN were used as housekeeping controls for normalization.
Nine components of the three pathways (WNT-TCF, BMP/TGFβ and chemokine/cytokine), and the top 6 repressed epigenetic regulators (ZMYND8, EED, SMARCAL1, TBLIXR1, SETD6 and TAF5L) (Figure 12) were tested for their modulation by dnTCF and their timed response to CAP2 treatment. […] DnTCF also repressed the expression of BMP4, SMAD6, IL8, CXCL3 and CXCL5, but expression of IL33 was enhanced. […] BMP4 and ID2 were also repressed at 2 and 4h but SMAD6 was repressed only at 4h. CXCL3 was already repressed at 2h, IL8 was little affected and IL33 and CXCL5 were enhanced at 2h. At 4 h only CXCL3 was repressed and the other three cytokine/chemokine genes tested (IL8, IL33 and CXCL5) were neither enhanced nor repressed. […] All values are normalized ratios with DMSO-controls, which were equated to 1 Table 14

WNT-TCF targets [1] = assay: Epistatic rescue with TCF^VP16, Ls174T; conditions: CAP2 5µM, 16h
Experimental: (§2) Lentivectors expressing a TCF4^VP16 protein in a vector independently expressing GFP, or vector alone, plus reporter plasmids were transfected into cells. 72h after transfection cells were visually checked for expression of GFP. Independent batches of cells with >80% GFP expression were chosen for further experimentation and treated with or without compounds in DMEM-F12 (with 2.5% FBS) for 16h and collected in Trizol.
(§3) If the effects of CAP2 on WNT-TCF targets were specific, an activated form of TCF should rescue the repression since CAP2 is likely to act downstream of the APC destruction complex since it was found using an N'Δ form of βCATENIN that is APC insensitive. To activate this last step of canonical WNT signaling, a fusion between TCF and the potent transactivation domain of the viral VP16 protein, TCF^VP16 (Melotti et al., 2014, supra), was used to directly and positively regulate TCF targets. […] Rescue of LGR5, cMYC and ASCL2 repression by CAP2 (at 5µM) was also observed although there was variability between the cell types, similarly to the repression of CDKN1A (Table 8), although in all cases it reversed its enhancement by CAP2 treatment (Table 8).

WNT-TCF targets [2] = assay: Epistatic rescue with TCF^VP16, DLD1; conditions: CAP2 5µM, 16h
Experimental: as §2, §3

WNT-TCF targets [3] = assay: RT-qPCR in cells dissociated from DLD1 xenograft tumors, treated in vitro; conditions: 16h, vs DMSO
Experimental: as §1
Four DLD1 regressed tumors were monitored after cessation of CAP2 treatment to determine recurrence after drug withdrawal. […] Tumor regrowth, however, could be due in principle to insufficient drug dosage or to the development of drug resistance. To test these possibilities the recurrent tumor was thus excised and the cells plated in vitro to test for the possible development of CAP2 resistance. One control in vivo cyclodextrin-treated tumor taken before reaching the legal (at around 21 day) limit was similarly processed to serve as control. […] The levels of WNT-TCF targets were generally lower in cells derived from tumors that were exposed in vivo to CAP2 in comparison to those in cells from tumors that were not treated with CAP2 (Figure 10). […] This consistent difference in the levels of several WNT-TCF targets raised the possibility that whereas tumor recurrence might be due to incomplete initial dosage, the recurring tumor harbored the memory of previous CAP2 treatment.

WNT-TCF targets [4] = assay: RT-qPCR gene expression in MeWo melanoma cells; conditions: 16h, batch 3, vs DMSO=1
Experimental: as §1
Primary colon cells CC14, CC36 and mCC11, colon cancer cell lines DLD1, HT29, Ls174T, melanoma cell line MeWo, glioblastoma cell lines U87 and U251, and the lung cancer cell line H358 were cultured in DMEM-F12 with 10% FBS under standard in nitro conditions.

Epigenetic regulators = assay: RT-qPCR of epigenetic regulators in CC14 cells; conditions: 0.5 µM
Experimental: as §1
The WNT-TCF-independent repressive activity of CAP2 on epigenetic regulators may be extrapolated to other cancer cells as it was also detected in HT29 and CC14 human colon cancer cells, in MeWo human melanoma cells as well as in U87 and U251 human glioma cells. In all these different human cancer cells, CAP2 (at 0.5 µM) modulated the expression of ZMYND8, SMARCAL1, TBLIXR1, SETD6 and TAF5Ls (Table 15).

[5] = DLD1 CAP2-treated tumor dissociated re-treated in vitro, 2.5µM
[6] = DLD1 CAP2-treated tumor dissociated re-treated in vitro, 5µM
[7] = DLD1 control tumor dissociated treated in vitro, 2.5µM
[8] = DLD1 control tumor dissociated treated in vitro, 5µM

Question: Which results are given for CC1=C(C)C(=O)O[C@@H]([C@](C)(O)[C@]2(O)CC[C@@]3(O)[C@@H]4CC=C5CC=CC(=O)[C@]5(C)[C@H]4CC[C@]23C)C1 [CAP2]?
Answer: CXCL3 expression (Chemokine/cytokine; 5µM batch 3, 2h post-treatment): 0.2; CXCL5 expression (Chemokine/cytokine; 5µM batch 3, 2h post-treatment): 1.3; IL8 expression (Chemokine/cytokine; 5µM batch 3, 2h post-treatment): 0.7; IL33 expression (Chemokine/cytokine; 5µM batch 3, 2h post-treatment): 1.4; CXCL3 expression (Chemokine/cytokine; 5µM batch 3, 4h post-treatment): 0.1; CXCL5 expression (Chemokine/cytokine; 5µM batch 3, 4h post-treatment): 1.1; IL8 expression (Chemokine/cytokine; 5µM batch 3, 4h post-treatment): 0.8; IL33 expression (Chemokine/cytokine; 5µM batch 3, 4h post-treatment): 1.1; ASCL2 expression, TCF^VP16+ CAP2 / control + CAP2 (WNT-TCF targets [1]): 1.0; AXIN2 expression, TCF^VP16+ CAP2 / control + CAP2 (WNT-TCF targets [1]): 16.1; CDKN1A expression, TCF^VP16+ CAP2 / control + CAP2 (WNT-TCF targets [1]): 0.5; LGR5 expression, TCF^VP16+ CAP2 / control + CAP2 (WNT-TCF targets [1]): 0.7; cMYC expression, TCF^VP16+ CAP2 / control + CAP2 (WNT-TCF targets [1]): 2.7; ASCL2 expression, TCF^VP16+ CAP2 / control + CAP2 (WNT-TCF targets [2]): 1.5; AXIN2 expression, TCF^VP16+ CAP2 / control + CAP2 (WNT-TCF targets [2]): 3.4; CDKN1A expression, TCF^VP16+ CAP2 / control + CAP2 (WNT-TCF targets [2]): 0.4; LGR5 expression, TCF^VP16+ CAP2 / control + CAP2 (WNT-TCF targets [2]): 1.4; cMYC expression, TCF^VP16+ CAP2 / control + CAP2 (WNT-TCF targets [2]): 0.8; ASCL2 expression (WNT-TCF targets [3]; [5]): 0.05; AXIN2 expression (WNT-TCF targets [3]; [5]): 0.4; LEF1 expression (WNT-TCF targets [3]; [5]): 0.4; LGR5 expression (WNT-TCF targets [3]; [5]): 0.6; cMYC expression (WNT-TCF targets [3]; [5]): 0.2; ASCL2 expression (WNT-TCF targets [3]; [6]): 0.1; AXIN2 expression (WNT-TCF targets [3]; [6]): 0.3; LEF1 expression (WNT-TCF targets [3]; [6]): 0.3; LGR5 expression (WNT-TCF targets [3]; [6]): 0.3; cMYC expression (WNT-TCF targets [3]; [6]): 0.1; ASCL2 expression (WNT-TCF targets [3]; [7]): 0.1; AXIN2 expression (WNT-TCF targets [3]; [7]): 0.6; LEF1 expression (WNT-TCF targets [3]; [7]): 0.4; LGR5 expression (WNT-TCF targets [3]; [7]): 0.7; cMYC expression (WNT-TCF targets [3]; [7]): 0.3; ASCL2 expression (WNT-TCF targets [3]; [8]): 0.1; AXIN2 expression (WNT-TCF targets [3]; [8]): 0.6; LEF1 expression (WNT-TCF targets [3]; [8]): 0.3; LGR5 expression (WNT-TCF targets [3]; [8]): 0.4; cMYC expression (WNT-TCF targets [3]; [8]): 0.3; AXIN2 expression (WNT-TCF targets [4]; 1.25µM): 0.4; LEF1 expression (WNT-TCF targets [4]; 1.25µM): 0.1; AXIN2 expression (WNT-TCF targets [4]; 2.5µM): 0.6; LEF1 expression (WNT-TCF targets [4]; 2.5µM): 0.2; AXIN2 expression (WNT-TCF targets [4]; 5µM): 0.3; LEF1 expression (WNT-TCF targets [4]; 5µM): 0.1; AXIN2 expression (WNT-TCF targets [4]; 10µM): 0.6; LEF1 expression (WNT-TCF targets [4]; 10µM): 0.1; EED expression (Epigenetic regulators): 0.3; SETD6 expression (Epigenetic regulators): 0.4; SMARCAL1 expression (Epigenetic regulators): 0.2; TAF5L expression (Epigenetic regulators): 0.5; TBL1XR1 expression (Epigenetic regulators): 0.2; ZMYND8 expression (Epigenetic regulators): 0.1
